Data on seven substances can be found in patent US20250388896A1, “COMPOSITION AND METHODS FOR TRANSGENE INSERTION” (ARTISAN DEVELOPMENT LABS, INC, priority 2022, published 2025).

What all share (type): cell-based, human
In data set [1] the test system is eight different loci (PDCD1, TIM3, LAG3, TIGIT, CTLA4, PTPN6, PTPN11, CD247). Nature of the data set: gNA screen and validation: INDEL and frameshift frequency at eight loci by amplicon sequencing. As to conditions: Jurkat cells; gNAs adjacent to all YTTN PAM variants. The procedure:
(§1) Ribonucleoprotein complexes (RNPs) were generated by incubating respective guide nucleic acids (gNAs) with MAD7 in the molar ratio of 3:2 gNA:MAD7 for 15 minutes at room temperature immediately before transfection. For Jurkat experiments, the RNP complexes were generated by mixing the respective gNA (150 pmol), MAD7 (100 pmol), and nuclease-free water, unless otherwise stated.
(§2) Lonza 4D Nucleofector with Shuttle unit (V4SC-2960 Nucleocuvette Strips) was used for transfection, following the manufacturer's instructions. […]
(§3) Extracted genomic DNA was quantified using the NanoDrop (ThermoFisher Scientific). […] The DNA was eluted from the beads with nuclease-free water and the size of the purified amplicons analyzed on a 2% agarose E-gel using the E-gel electrophoresis system (ThermoFisher Scientific). In the second PCR, unique pairs of Illumina-compatible indexes (Nextera XT Index Kit v2) were added to the amplicons using the KAPA HiFi HotStart Ready Mix (Roche). […] Sizes of the purified DNA fragments were validated on a 2% agarose gel using the E-gel electrophoresis system (ThermoFisher Scientific), quantified using Qubit dsDNA HS Assay Kit (Thermo Fisher) and then pooled in equimolar concentrations. […] The final library was sequenced on Illumina MiSeq System using the MiSeq Reagent Kit v.2 (300 cycles, 2×250 bp, paired-end reads). […]

Data set [2] relates to predicted off-target sites. The data set can be described thus: INDEL frequency at predicted off-target sites by targeted deep sequencing. As to conditions: Jurkat cells. The source says: Extracted genomic DNA was quantified using the NanoDrop (ThermoFisher Scientific). […] Amplification products were purified with Agencourt AMPure XP beads (Ramcon), using the sample to beads ratio of 1:1.8. The DNA was eluted from the beads with nuclease-free water and the size of the purified amplicons analyzed on a 2% agarose E-gel using the E-gel electrophoresis system (ThermoFisher Scientific). In the second PCR, unique pairs of Illumina-compatible indexes (Nextera XT Index Kit v2) were added to the amplicons using the KAPA HiFi HotStart Ready Mix (Roche). The amplified products were purified with Agencourt AMPure XP beads (Ramcon), using the sample to bead ratio of 1:1.8. […] Sizes of the purified DNA fragments were validated on a 2% agarose gel using the E-gel electrophoresis system (ThermoFisher Scientific), quantified using Qubit dsDNA HS Assay Kit (Thermo Fisher) and then pooled in equimolar concentrations. […] The final library was sequenced on Illumina MiSeq System using the MiSeq Reagent Kit v.2 (300 cycles, 2×250 bp, paired-end reads). […]
Initial quality assessment of the obtained reads was performed with FastQC36. […] For the ORF disruption analysis, CRISPRessoBatch command with the parameters --cleavage_offset 1 -coding_seq <EXON_SEQ> --quantification_window_size 0 --quantification_window_center 1 --expand_ambiguous_alignments was used. […]

The test system of the next data set is PDCD1 protein. The data set can be described thus: PDCD1 knock-out: surface expression of PDCD1 protein by flow cytometry. As to conditions: Jurkat cells. The procedure: Flow cytometric assessments were carried out on a CytoFLEX S instrument (Beckmen Coulter) using a 96-well plate format. Measurements of cell viability, PDCD1 expression, GFP expression, and CAR expression were performed on 10,000 or 20,000 single cell events in Jurkat or primary T-cells, respectively.
For detection of PDCD1 knock-out efficiency, approx. 250,000 Jurkat cells per sample were transferred onto 96-well V-bottom cell culture plates and assessed following a series of consecutive washing and staining steps. The first step included centrifuging the cells at 300 g for 5 minutes at 4° C. and discarding the supernatant. Afterwards, the cells were stained using 100 μL Cell Staining Buffer (Biolegend) with APC/Cyanine7 anti-human CD279 (PD-1) antibody (1:100; Biolegend) and incubated for 30 minutes at 4° C. in the dark. The cells were then centrifuged at 300 g for 5 minutes at 4° C. and the supernatant discarded. The next step included two repeats of centrifugation at 300 g for 5 minutes at 4° C., supernatant removal, and cell washing in 150 μL ice-cold Cell Staining Buffer (Biolegend). In the final step, the cells were re-suspended in 100 μL Cell Staining Buffer for the flow cytometry measurements (excitation: red laser; emission: […]).
High-efficiency gNAs identified in our initial analysis were validated by assaying INDEL frequency for the top three or five gNAs for each of the selected immunologically relevant genes (FIG. 14). […] Alternating grey and white zones on the plot represent groups of three to five high-efficiency gNAs per locus. […] Using the CRISPresso2 software, the degree of open reading frame (ORF) disruption for each of the validated gNAs was estimated (FIG. 14). In addition, for four high-efficiency gNAs targeting three different exons at the PDCD1 locus, surface expression of the PDCD1 protein was measured by flow cytometry 4, 7, and 11 days post-transfection (data not shown). […] Average fraction of INDELs leading to frameshifts (dashed line) is approx. 66%. Alternating grey and white zones on the plot represent groups of three to five high-efficiency gNAs per locus.

In the next data set the test system is TIM3. The data set can be described thus: gNA screen INDEL/frameshift frequency, TIM3. To be noted: Jurkat cells; CRISPResso2 ORF disruption analysis. The procedure: as §1, §2, §3
Setting [3] is: measured 4, 7 and 11 days post-transfection, day of value not stated.

As for MAD7: type V-A Cas nuclease MAD7, the “editing by PAM motif” value in data set [1] is reported as “demonstrated editing with all eight combinations of YTTN PAM”. Further, the “INDEL frequency of MAD7 at predicted off-target sites” value in data set [2] (all assayed off-target sites, Pairwise T-test, P≥0.05) is reported as “No significant INDEL frequency”.

Take “crPDCD1 3: high-efficiency gNA targeting the PDCD1 locus (guide CAGUGGCGAGAGAAGACCCCG; listed as RNA, further chemistry not given here)”: the “surface expression of the PDCD1 protein” value in the data set with PDCD1 protein (setting [3]) is on record as 35%.

Consider “crPDCD1 4: high-efficiency gNA targeting the PDCD1 locus (guide CUAGCGGAAUGGGCACCUCAU; listed as RNA, further chemistry not given here)”, for which, in the data set on PDCD1 protein (setting [3]), the “surface expression of the PDCD1 protein” value was 85%.

For “crPDCD1_2: gNA targeting the PDCD1 gene at the extracellular domain of the protein (guide UCUGCAGGGACAAUAGGAGCC; listed as RNA, further chemistry not given here)”, the figures for the “surface expression of the PDCD1 protein” value in the data set on PDCD1 protein (4 days post-transfection) and in the data set on PDCD1 protein (day 11 post-transfection) were 10% and “remained at this level”, respectively. In addition, the “off-target activity (INDEL formation) at predicted off-target sites” value in data set [2] (25 predicted sites, up to four mismatches, crPDCD1_2_13 and crPDCD1_2_15 sites, insignificant vs MOCK (P≥0.05)) is on record as “low-level off-target activity”.

“crPDCD1_5: high-efficiency gNA targeting the PDCD1 locus (guide GUGCUAAACUGGUACCGCAUG; listed as RNA, further chemistry not given here)”: the “surface expression of the PDCD1 protein” value with PDCD1 protein (setting [3]) was determined as 85%.

Take “crTIM3_1: validated gNA targeting TIM3 (guide CUUGUAAGUAGUAGCAGCAGC; listed as RNA, further chemistry not given here)”: the “frameshifts frequency (fraction of frameshift to INDEL)” value with TIM3 came out at 23%.

In the case of “crTIM3_3: validated gNA targeting TIM3 (guide UAAGUAGUAGCAGCAGCAGCA; listed as RNA, further chemistry not given here)”, in the data set on TIM3, the “frameshifts frequency (fraction of frameshift to INDEL)” value amounted to 44%.
